“Also recorded” adds a separate entry of the source.
Tests used:
[1] = Stability of F573 solution before and after high-temperature sterilization; format: physicochemical; conditions: for Content / Related substances: propylene glycol/water (80%/20%), pH 4.0-5.0
Description: 1.2 Investigation of Stability of F573 Injection
F573 was dissolved in the solution of propylene glycol/water (80%/20%; pH was adjusted to 4.0-5.0), and the resulting mixture was sterilized at a high temperature of 120° C. for 15 min and then examined (the results are shown in Table A-2 below).

[2] = tested on: liver failure; conditions: background; CN201110025509.8 and CN201110025516.8; cited from earlier work
[3] = Screening injection solvents for F573 (solvent effects, dissolution behavior); format: physicochemical; conditions: 2 ml:30 mg F573
Source text: 1.1 for the Purpose of Preparing F573 Injection, Screening Injection Solvents

[4] = tested on: cells; conditions: background; cited from earlier work
[5] = After sterilization at 120° C. for 15 min
[6] = after the high-temperature sterilization

Work on `CC(C)[C@H](NC(=O)OCc1ccccc1)C(=O)NC(CC(=O)O)C(=O)CF` (stereo partly drawn) [F573, 3-(2-benzyloxycarbonylamino-3-methyl-butanamido)-5-fluoro-4-oxo-pentanoic acid] yielded a Content [1, 5] of 8.82 mg/mL, a Related substances [1, 5] of 47.22% and a Content ([1]; Before sterilization) of 16.08 mg/mL. The Related substances ([1]; Before sterilization) was 1.80%, the “Increase in the related substances” value [1, 6] was “about 50%” and the “Reduction in the F573 content” value [1, 6] was “about 50%”. The “Stability in aqueous solution” value ([1]; aqueous solution, moist heat sterilization) was “poor stability”, the “Efficacy on liver failure” value [2] was “remarkable efficacy on liver failure” and the Dissolution behavior ([3]; Ethanol/water (10%/90%)) was “Turbid”. For the same compound, the Dissolution behavior ([3]; Oil for injection, Vegetable oil) was “Turbid”, the Dissolution behavior ([3]; Propylene glycol/water (50%/50%)) was “Turbid” and the Dissolution behavior ([3]; Propylene glycol/water (80%/20%), adjusting pH to 4.0-5.0) was “completely dissolved; also recorded: Clarified”. For the same compound, the Dissolution behavior ([3]; Water for injection, adjusting pH to 2.0-2.5) was “Turbid”, the Dissolution behavior ([3]; Water for injection, adjusting pH to 4.0-5.0) was “Turbid” and the Toxicity on cells [4] was “no significant toxicity on cells”.

Reference: patent US20250313593A1, “DIPEPTIDE DERIVATIVE COMPOSITION, PREPARATION METHOD THEREFOR, AND USE THEREOF” (BEIJING CONTINENT PHARMACEUTICALS CO., LTD, priority 2022, published 2025)
